We go through ten molecules from US11447504B2, “Macrocyclic chlorine substituted indole derivatives” (Bayer Aktiengesellschaft, priority 2017, dated 2022).

Data set [1] has as its system SUDHL5. As to the kind of experiment: Induction of cytotoxicity (Assay 6), SUDHL5.
For a further data set, the system named is AMO-1. As to the kind of experiment: Antiproliferation assay 7, AMO-1. The format is cell-based. The following applies: AMO-1 cells, CellTiter-Glo, read-out: Antiproli AMO-1 IC50 median. On the procedure:
(§1) Assessment of the Anti-Proliferative Effect of Compounds in Different Cell Lines
(§2) The impact of compounds on the proliferation of different cell lines was assessed using the CellTiter-Glo® Luminescent Cell Viability reagent from Promega (G7573).
(§3) In parallel, cells were plated in a reference (day 0) plate for time zero determination.
(§4) Rim wells were excluded. The cells were incubated for 72 hours in a humidified incubator at 37° C. The day 0 plate was measured by adding 30 μL/well of CTG solution (CellTiter-Glo® Luminescent Cell Viability reagent, Promega G7573) to time zero wells in the reference plate followed by a 10 minutes incubation and luminescence reading at 0.1 ms. using the PHERAstar FS microplate reader (BMG Labtech).
(§5) After 72 hours incubation, the treated plates were measured in the same way as the day 0 plate mentioned above.

Another data set relates to HMC-1-8. As to the kind of experiment: Antiproliferation assay 7, HMC-1-8. It is filed as cell-based. The conditions noted are these: HMC-1-8 cells, CellTiter-Glo, read-out: Antiproli HMC-1-8 IC50 median. On the procedure: as §1, §2, §3, §4, §5
In general terms: Cellular ATP, detected with luciferase, serves as a proxy for viable cell number.

Data set [2] relates to SUDHL5. Description: Induction of caspase-3/7 activity (Assay 4), SUDHL5. The following applies: SUDHL5 cells. It is filed as cell-based. As for the experimental part: (§6) Induction of Caspase-3/7 Activity Upon Treatment of Cells with Selected Compounds
The BH3-domain of MCL-1 sequesters pro-apoptotic proteins, thereby inhibiting apoptosis. In contrast, MCL-1 inhibitors are expected to antagonize this effect leading to an increase in apoptosis, which can be determined by measuring the activity of caspase-3/7.
(§7) The activity of caspase-3/7 was determined in DLBCL (Diffuse large B-cell lymphoma) cell lines (SUDHL5 and SUDHL10) upon treatment with different compounds, using the Caspase-Glo®3/7 reagent from Promega (G8092).
(§8) Rim wells were excluded. The cells were incubated for 3 hours in a humidified incubator at 37° C.
(§9) For the evaluation of the results, the background measured with “medium-only” was subtracted from all other values.

The test system of data set [3] is SUDHL5. Description: Antiproliferation assay 7, SUDHL5. The format is cell-based. The following applies: SUDHL5 cells, CellTiter-Glo, read-out: Antiproli SUDHL5 IC50 (median). On the procedure:
as §1, §2, §3, §4, §5

Data set [4] relates to SUDHL10. Description: Induction of cytotoxicity (Assay 6), SUDHL10.
The test system of data set [5] is SUDHL10. Description: Induction of caspase-3/7 activity (Assay 4), SUDHL10. It is filed as cell-based. The conditions noted are these: SUDHL10 cells. As for the experimental part: as §6
In contrast, MCL-1 inhibitors are expected to antagonize this effect leading to an increase in apoptosis, which can be determined by measuring the activity of caspase-3/7.
as §7, §8, §9

The next data set has as its system MV-4-11. As to the kind of experiment: Antiproliferation assay 7, MV-4-11. The following applies: Homo sapiens, MV4-11, 72 h, MV-4-11 cells, CellTiter-Glo, read-out: Antiproli MV-4-11 IC50 median. It is filed as cell-based. As for the experimental part: as §1, §2, §3, §4, §5
Where [6] appears, read: read-out: Cytotox SUDHL5 IC50 (median), SUDHL5 cells, 5 hours, CellTiter-Glo.
[7] abbreviates: 3 hours, Caspase-Glo 3/7, read-out: Caspase SUDHL5 EC50 (median).
[8] abbreviates: read-out: Cytotox SUDHL10 IC50 (median), SUDHL10 cells, 5 hours, CellTiter-Glo.
Where [9] appears, read: 3 hours, Caspase-Glo 3/7, read-out: Caspase SUDHL10 EC50 (median).
Setting [10] is: Homo sapiens, SU-DHL-5, 5 h, read-out: Cytotox SUDHL5 IC50 (median), SUDHL5 cells, 5 hours, CellTiter-Glo.
Setting [11] is: Homo sapiens, SU-DHL10, 5 h, read-out: Cytotox SUDHL10 IC50 (median), SUDHL10 cells, 5 hours, CellTiter-Glo.
Where [12] appears, read: Homo sapiens, SU-DHL10, 3 h, Caspase-Glo 3/7, read-out: Caspase SUDHL10 EC50 (median).
Setting [13] is: Homo sapiens, SU-DHL-5, 3 h, Caspase-Glo 3/7, read-out: Caspase SUDHL5 EC50 (median).

Structures can show the parent of a compound that is named as a salt. Where two headings read alike, the source gives them in different places.

One may read the IC50 as the concentration needed to halve the response being measured. By EC50 is commonly meant the midpoint of the concentration-response curve. On to `CCc1c2c(nn1C)CCCCCCn1c(C(=O)O)c(CCCOc3cccc4ccccc34)c3ccc(Cl)c-2c31` (single isomer, unassigned; enantiomer 2) [Example 53, (−) 4-chloro-3-ethyl-2-methyl-7-{3-[(naphthalen-1-yl)oxy]propyl}-10,11,12,13,14,15-hexahydro-2H-pyrazolo[4′,3′:4,5]azacycloundecino[3,2,1-hi]indole-8-carboxylic acid-N-ethylethanamine Salt—Enantiomer 2], for which the IC50 came to 2500 nM with SUDHL5 [1] (setting [6]), 11200 nM in the data set with AMO-1 (72 hours) and 16800 nM with HMC-1-8 (72 hours). Moreover, the EC50 in the data set with SUDHL5 [2] (setting [7]) was 3500 nM.

In the case of `Cc1c2c(nn1C)OCCCCCn1c(C(=O)O)c(CCCOc3cccc4cc(F)ccc34)c3ccc(Cl)c-2c31` (single isomer, unassigned; enantiomer 2) [Example 85, 4-chloro-7-{3-[(6-fluoronaphthalen-1-yl)oxy]propyl}-2,3-dimethyl-11,12,13,14-tetrahydro-2H,10H-pyrazolo[3′,4′:2,3][1,6]oxazacycloundecino[4,5,6-hi]indole-8-carboxylic Acid—Enantiomer 2], the IC50 with SUDHL5 [1] (setting [6]) is 17000 nM; with AMO-1 (72 hours), 6100 nM; in the data set on SUDHL5 [3] (72 hours), 13000 nM; in the data set with HMC-1-8 (72 hours) it was more than 30000 nM; in the data set with SUDHL10 [4] (setting [8]) it was 25000 nM. The EC50 with SUDHL10 [5] (setting [9]) is 25000 nM; with SUDHL5 [2] (setting [7]), 9700 nM.

For `Cc1c2c(nn1C)COCC(F)(F)CCn1c(C(=O)O)c(CCCOc3cccc4ccccc34)c3ccc(Cl)c-2c31` (single isomer, unassigned; enantiomer 2) [Example 57, 4-chloro-12,12-difluoro-2,3-dimethyl-7-{3-[(naphthalen-1-yl)oxy]propyl}-2,10,11,12,13,15-hexahydropyrazolo[4′,3′:9,10][1,6]oxazacycloundecino[8,7,6-hi]indole-8-carboxylic acid-N-ethylethanamine Salt—Enantiomer 2], the IC50 in the data set with SUDHL5 [1] (setting [6]) was found to be 6900 nM; with AMO-1 (72 hours) it was 11800 nM; in the data set on SUDHL5 [3] (72 hours), 3900 nM; in the data set on HMC-1-8 (72 hours) it was 8680 nM; in the data set with SUDHL10 [4] (setting [8]), 10000 nM. In addition, the values for the EC50 with SUDHL10 [5] (setting [9]) and in the data set with SUDHL5 [2] (setting [7]) were 13000 nM and 7600 nM, respectively.

Consider `Cc1c2c(nn1C)CN(CC(F)(F)F)CCCCn1c(C(=O)O)c(CCCOc3cccc4cc(F)ccc34)c3ccc(Cl)c-2c31` (single isomer, unassigned; enantiomer 2) [Example 60, 4-chloro-7-{3-[(6-fluoronaphthalen-1-yl)oxy]propyl}-2,3-dimethyl-14-(2,2,2-trifluoroethyl)-10,11,12,13,14,15-hexahydro-2H-pyrazolo[3′,4′:8,9][1,6]diazacycloundecino[10,11,1-hi]indole-8-carboxylic Acid—Enantiomer 2], for which the IC50 is 12000 nM in the data set on SUDHL5 [1] (setting [6]); 25500 nM in the data set on AMO-1 (72 hours); 20000 nM with SUDHL5 [3] (72 hours); more than 30000 nM in the data set on HMC-1-8 (72 hours); 26000 nM with SUDHL10 [4] (setting [8]). Also, the EC50 with SUDHL10 [5] (setting [9]) stood at 27000 nM; in the data set on SUDHL5 [2] (setting [7]), 9000 nM.

On to `CCc1c2c(nn1C)N(CCC1CCOCC1)CCCCCn1c(C(=O)O)c(CCCOc3cccc4cc(F)ccc34)c3ccc(Cl)c-2c31` (single isomer, unassigned; enantiomer 1) [Example 81, 4-chloro-3-ethyl-7-{3-[(6-fluoronaphthalen-1-yl)oxy]propyl}-2-methyl-15-[2-(oxan-4-yl)ethyl]-10,11,12,13,14,15-hexahydro-2H-pyrazolo[4′,3′:4,5][1,6]diazacycloundecino[3,2,1-hi]indole-8-carboxylic acid N-ethylethanamine Salt—Enantiomer 1], for which the IC50 with SUDHL5 [1] (setting [6]) was 290 nM; with AMO-1 (Homo sapiens, AMO1, 72 h) it was 120 nM; with SUDHL5 [3] (72 hours), 320 nM; in the data set on HMC-1-8 (72 h) it was 1900 nM; with SUDHL10 [4] (setting [8]) it was 230 nM. Also, the EC50 in the data set on SUDHL10 [5] (setting [9]) came out at 170 nM; in the data set with SUDHL5 [2] (setting [7]), 220 nM.

Take `Cc1c2c(nn1C)CN(CC(F)(F)F)CCCCn1c(C(=O)O)c(CCCOc3cccc4cc(F)ccc34)c3ccc(Cl)c-2c31` (racemic) [Example 58, (rac)-4-chloro-7-{3-[(6-fluoronaphthalen-1-yl)oxy]propyl}-2,3-dimethyl-14-(2,2,2-trifluoroethyl)-10,11,12,13,14,15-hexahydro-2H-pyrazolo[3′,4′:8,9][1,6]diazacycloundecino[10,11,1-hi]indole-8-carboxylic Acid]: the IC50 amounted to 340 nM in the data set with SUDHL5 [1] (setting [10]); 683 nM in the data set on AMO-1 (Homo sapiens, AMO1, 72 h); 250 nM with SUDHL5 [3] (Homo sapiens, SU-DHL-5, 72 h); 1720 nM with HMC-1-8 (72 h); 530 nM with SUDHL10 [4] (setting [11]). Further, the figures for the EC50 in the data set on SUDHL10 [5] (setting [12]) and with SUDHL5 [2] (setting [13]) were 440 nM and 330 nM, respectively.

Turning to `Cc1c2c(nn1C)OCCCCCn1c(C(=O)O)c(CCCOc3cccc4cc(F)ccc34)c3ccc(Cl)c-2c31` (racemic) [Example 83, (rac)-4-chloro-7-{3-[(6-fluoronaphthalen-1-yl)oxy]propyl}-2,3-dimethyl-11,12,13,14-tetrahydro-2H,10H-pyrazolo[3′,4′:2,3][1,6]oxazacycloundecino[4,5,6-hi]indole-8-carboxylic Acid], the IC50 worked out at 660 nM with SUDHL5 [1] (setting [6]); 730 nM with AMO-1 (72 hours); 380 nM in the data set with SUDHL5 [3] (72 hours); 7900 nM in the data set on HMC-1-8 (72 hours); 1100 nM in the data set with SUDHL10 [4] (setting [8]). The EC50 was determined as 980 nM in the data set with SUDHL10 [5] (setting [9]) and 610 nM with SUDHL5 [2] (setting [7]).

Turning to `CCc1c2c(nn1C)CCCCCCn1c(C(=O)O)c(CCCOc3cccc4ccccc34)c3ccc(Cl)c-2c31` (single isomer, unassigned; enantiomer 1) [Example 52, (+)-4-chloro-3-ethyl-2-methyl-7-{3-[(naphthalen-1-yl)oxy]propyl}-10,11,12,13,14,15-hexahydro-2H-pyrazolo[4′,3′:4,5]azacycloundecino[3,2,1-hi]indole-8-carboxylic acid-N-ethylethanamine Salt—Enantiomer 1], the IC50 in the data set on SUDHL5 [1] (setting [6]) is 320 nM; with AMO-1 (72 hours), 1440 nM; in the data set with HMC-1-8 (72 hours), 5250 nM. Further, in the data set on SUDHL5 [2] (setting [7]), the EC50 turned out to be 370 nM.

Regarding `CCc1c2c(nn1C)CN(CC(F)(F)F)CCCCn1c(C(=O)O)c(CCCOc3cccc4cc(F)ccc34)c3ccc(Cl)c-2c31` (racemic) [Example 61, (rac) 4-chloro-3-ethyl-7-{3-[(6-fluoronaphthalen-1-yl)oxy]propyl}-2-methyl-14-(2,2,2-trifluoroethyl)-10,11,12,13,14,15-hexahydro-2H-pyrazolo[3′,4′:8,9][1,6]diazacycloundecino[10,11,1-hi]indole-8-carboxylic Acid], the IC50 with SUDHL5 [1] (setting [10]) worked out at 540 nM; with AMO-1 (Homo sapiens, AMO1, 72 h) it was 1870 nM; with HMC-1-8 (72 h) it was 7150 nM. Further, in the data set with SUDHL5 [2] (setting [13]), the EC50 is 330 nM.

On to `CCc1c2c(nn1C)CCCCCCn1c(C(=O)O)c(CCCOc3cccc4ccccc34)c3ccc(Cl)c-2c31` (racemic) [Example 51, (rac)-4-chloro-3-ethyl-2-methyl-7-{3-[(naphthalen-1-yl)oxy]propyl}-10,11,12,13,14,15-hexahydro-2H-pyrazolo[4′,3′:4,5]azacycloundecino[3,2,1-hi]indole-8-carboxylic Acid], for which the IC50 was determined as 840 nM in the data set with SUDHL5 [1] (setting [10]); 2150 nM with AMO-1 (Homo sapiens, AMO1, 72 h); 1600 nM in the data set on SUDHL5 [3] (Homo sapiens, SU-DHL-5, 72 h); 2000 nM in the data set on SUDHL10 [4] (setting [11]); 1710 nM in the data set on MV-4-11. The figures for the EC50 in the data set with SUDHL10 [5] (setting [12]) and in the data set on SUDHL5 [2] (setting [13]) were 1900 nM and 800 nM, respectively.
